# Reference: patent publication US20230286970A1, “NOVEL OXADIAZOLE-BASED SELECTIVE HDAC6 INHIBITORS” (ITALFARMACO S.P.A., priority 2020, published 2023)
# Legend:
# [1] = target: recombinant human HDAC6 (Homo sapiens (Human), UniProt Q9UBN7); test: Enzymatic screening, HDAC6 inhibition (fluorogenic FdL_G substrate); type: biochemical
# In short: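 Enzyme was preincubated with compound (8 doses, triplicate, 1% DMSO) in 25 mM Tris-HCl pH 8, 130 mM NaCl, 0.05% Tween-20, 10% glycerol, with BSA. A FLUOR DE LYS-Green substrate was then added, and fluorescence was read after developer plus 2 μM TSA.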
# [2] = target: recombinant human HDAC1 (Homo sapiens (Human), UniProt Q13547); test: Enzymatic screening, HDAC1 inhibition (fluorogenic FdL_G substrate); type: biochemical
# recombinant human HDAC1, sequence (Q13547 whole entry): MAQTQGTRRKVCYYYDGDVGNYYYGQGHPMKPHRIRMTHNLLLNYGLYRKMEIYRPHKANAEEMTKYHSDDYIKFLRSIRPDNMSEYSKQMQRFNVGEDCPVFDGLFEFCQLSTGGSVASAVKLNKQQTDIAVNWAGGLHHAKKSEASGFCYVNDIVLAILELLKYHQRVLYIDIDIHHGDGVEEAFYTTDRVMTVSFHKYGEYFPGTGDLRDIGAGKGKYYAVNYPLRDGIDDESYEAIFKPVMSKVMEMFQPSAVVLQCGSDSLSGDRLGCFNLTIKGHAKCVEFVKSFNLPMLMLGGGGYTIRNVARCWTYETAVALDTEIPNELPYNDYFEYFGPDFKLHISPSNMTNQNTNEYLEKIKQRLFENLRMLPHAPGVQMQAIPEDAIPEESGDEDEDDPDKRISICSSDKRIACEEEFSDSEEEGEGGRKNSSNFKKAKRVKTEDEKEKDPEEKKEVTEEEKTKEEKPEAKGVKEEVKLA
# In short: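 Recombinant human HDAC1 inhibition was measured fluorometrically using the FLUOR DE LYS-Green (FdL_G) substrate. Compounds at 8 doses (1% DMSO final) in Tris-HCl pH 8 buffer with NaCl, Tween-20 and glycerol were preincubated in triplicate with enzyme and 1 mg/mL BSA, then given substrate. Developer I plus 2 μM TSA was added, and fluorescence read after 25 minutes in the dark.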
# recombinant human HDAC6, sequence (Q9UBN7 whole entry): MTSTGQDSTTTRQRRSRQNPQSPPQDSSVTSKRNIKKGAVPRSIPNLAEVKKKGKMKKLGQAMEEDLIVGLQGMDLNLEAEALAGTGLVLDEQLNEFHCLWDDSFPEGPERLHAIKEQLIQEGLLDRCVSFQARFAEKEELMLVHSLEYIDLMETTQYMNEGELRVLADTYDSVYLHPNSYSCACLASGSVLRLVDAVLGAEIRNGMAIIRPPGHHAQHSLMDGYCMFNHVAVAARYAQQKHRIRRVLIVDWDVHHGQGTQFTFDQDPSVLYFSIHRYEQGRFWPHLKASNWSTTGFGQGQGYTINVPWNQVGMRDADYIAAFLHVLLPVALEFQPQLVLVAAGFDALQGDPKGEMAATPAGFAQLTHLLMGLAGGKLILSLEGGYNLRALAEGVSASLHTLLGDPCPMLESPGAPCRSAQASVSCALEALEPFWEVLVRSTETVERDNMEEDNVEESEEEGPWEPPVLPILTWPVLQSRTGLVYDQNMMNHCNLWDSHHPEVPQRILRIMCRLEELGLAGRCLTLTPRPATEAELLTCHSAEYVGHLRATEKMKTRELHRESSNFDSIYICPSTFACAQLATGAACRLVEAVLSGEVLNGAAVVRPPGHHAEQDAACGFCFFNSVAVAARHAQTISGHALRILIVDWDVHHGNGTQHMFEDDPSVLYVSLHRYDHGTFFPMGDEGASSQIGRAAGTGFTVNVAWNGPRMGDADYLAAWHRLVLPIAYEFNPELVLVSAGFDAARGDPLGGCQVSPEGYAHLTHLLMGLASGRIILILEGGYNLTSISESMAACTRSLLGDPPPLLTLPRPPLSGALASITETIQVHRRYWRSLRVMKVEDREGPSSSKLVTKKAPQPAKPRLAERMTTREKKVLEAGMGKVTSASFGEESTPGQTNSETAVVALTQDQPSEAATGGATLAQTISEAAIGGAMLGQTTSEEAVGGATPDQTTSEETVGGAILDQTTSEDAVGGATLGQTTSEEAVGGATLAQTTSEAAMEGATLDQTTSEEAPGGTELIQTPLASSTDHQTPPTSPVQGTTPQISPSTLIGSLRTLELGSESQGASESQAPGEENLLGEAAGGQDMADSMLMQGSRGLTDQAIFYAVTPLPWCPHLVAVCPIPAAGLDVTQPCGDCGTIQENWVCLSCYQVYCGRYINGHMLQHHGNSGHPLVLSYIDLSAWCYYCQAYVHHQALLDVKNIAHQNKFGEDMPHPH
Structure (SMILES),IC50 [1] [nM],IC50 [2] [nM]
"Nc1ncnc2cc(-c3cn(Cc4ccc(-c5nnc(C(F)F)o5)cc4F)nn3)ccc12 [compound 387, 7-[1-({4-[5-(difluoromethyl)-1,3,4-oxadiazol-2-yl]-2-fluorophenyl}methyl)-1H-1,2,3-triazol-4-yl]quinazolin-4-amine]",12,1e+06
"CNc1ncc2cc(-c3cn(Cc4cc(F)c(-c5nnc(C(F)F)o5)cc4F)nn3)ccc2n1 [compound 391, 6-[1-({4-[5-(difluoromethyl)-1,3,4-oxadiazol-2-yl]-2,5-difluorophenyl}methyl)-1H-1,2,3-triazol-4-yl]-N-methylquinazolin-2-amine]",217,1e+06
"CNc1ncc2cc(-c3cn(Cc4c(F)cc(-c5nnc(C(F)F)o5)cc4F)nn3)ccc2n1 [compound 392, 6-[1-({4-[5-(difluoromethyl)-1,3,4-oxadiazol-2-yl]-2,6-difluorophenyl}methyl)-1H-1,2,3-triazol-4-yl]-N-methylquinazolin-2-amine]",102,1e+06
"CCNc1ncc2cc(-c3cn(Cc4ccc(-c5nnc(C(F)F)o5)c(F)c4)nn3)ccc2n1 [compound 395, 6-(1-(4-(5-(difluoromethyl)-1,3,4-oxadiazol-2-yl)-3-fluorobenzyl)-1H-1,2,3-triazol-4-yl)-N-ethylquinazolin-2-amine]",857,1e+06
"Nc1nccc2cc(-c3nnn(Cc4cc(F)c(-c5nnc(C(F)F)o5)cc4F)n3)ccc12 [compound 396, 6-[2-[[4-[5-(difluoromethyl)-1,3,4-oxadiazol-2-yl]-2,5-difluorophenyl]methyl]tetrazol-5-yl]isoquinolin-1-amine]",60,1e+06
"Nc1nccc2cc(-c3nnn(Cc4ccc(-c5nnc(C(F)F)o5)cc4F)n3)ccc12 [compound 397, 6-[2-[[4-[5-(difluoromethyl)-1,3,4-oxadiazol-2-yl]-2-fluorophenyl]methyl]tetrazol-5-yl]isoquinolin-1-amine]",57,1e+06
"Nc1cc2cc(-c3cn(Cc4cc(F)c(-c5nnc(C(F)F)o5)cc4F)nn3)ccc2cn1 [compound 406, 6-[1-({4-[5-(difluoromethyl)-1,3,4-oxadiazol-2-yl]-2,5-difluorophenyl}methyl)-1H-1,2,3-triazol-4-yl]isoquinolin-3-amine]",85,1e+06
"Nc1ccc(-c2noc(Cc3ccc(-c4nnc(C(F)F)o4)c(F)c3)n2)cc1 [compound 408, 4-(5-(4-(5-(difluoromethyl)-1,3,4-oxadiazol-2-yl)-3-fluorobenzyl)-1,2,4-oxadiazol-3-yl)aniline]",80,> 1e+06
"CCNc1ccc2cc(-c3nnn(Cc4cc(F)c(-c5nnc(C(F)F)o5)cc4F)n3)ccc2n1 [compound 409, 6-(2-(4-(5-(difluoromethyl)-1,3,4-oxadiazol-2-yl)-2,5-difluorobenzyl)-2H-tetrazol-5-yl)-N-ethylquinolin-2-amine]",420,1e+06
"Cn1c(N)nc2cc(-n3cc(Cc4ccc(-c5nnc(C(F)F)o5)cc4)nn3)ccc21 [compound 414, 5-[4-({4-[5-(difluoromethyl)-1,3,4-oxadiazol-2-yl]phenyl}methyl)-1H-1,2,3-triazol-1-yl]-1-methyl-1H-1,3-benzodiazol-2-amine]",461,1e+06
"Nc1ncnc2sc(-c3cn(Cc4ccc(-c5nnc(C(F)F)o5)cc4F)nn3)cc12 [compound 416, 6-[1-({4-[5-(difluoromethyl)-1,3,4-oxadiazol-2-yl]-2-fluorophenyl}methyl)-1H-1,2,3-triazol-4-yl]thieno[2,3-d]pyrimidin-4-amine]",46,1e+06

# More lines, in order of falling IC50 [1], values ahead:
IC50 [1] [nM],IC50 [2] [nM],Structure (SMILES)
497,1e+06,"CNc1ncc2cc(-c3cn(Cc4ccc(-c5nnc(C(F)F)o5)c(F)c4)nn3)ccc2n1 [compound 393, 6-[1-({4-[5-(difluoromethyl)-1,3,4-oxadiazol-2-yl]-3-fluorophenyl}methyl)-1H-1,2,3-triazol-4-yl]-N-methylquinazolin-2-amine]"
348,1e+06,"CCNc1ccc2cc(-c3nnn(Cc4ccc(-c5nnc(C(F)F)o5)c(F)c4)n3)ccc2n1 [compound 410, 6-(2-(4-(5-(difluoromethyl)-1,3,4-oxadiazol-2-yl)-3-fluorobenzyl)-2H-tetrazol-5-yl)-N-ethylquinolin-2-amine]"
264,1e+06,"CCNc1ncc2cc(-c3cn(Cc4cc(F)c(-c5nnc(C(F)F)o5)cc4F)nn3)ccc2n1 [compound 394, 6-[1-({4-[5-(difluoromethyl)-1,3,4-oxadiazol-2-yl]-2,5-difluorophenyl}methyl)-1H-1,2,3-triazol-4-yl]-N-ethylquinazolin-2-amine]"
192,1e+06,"CNc1ncc2cc(-c3cn(Cc4ccc(-c5nnc(C(F)F)o5)c(F)c4F)nn3)ccc2n1 [compound 389, 6-[1-({4-[5-(difluoromethyl)-1,3,4-oxadiazol-2-yl]-2,3-difluorophenyl}methyl)-1H-1,2,3-triazol-4-yl]-N-methylquinazolin-2-amine]"
178,1e+06,"Nc1cc2cc(-c3cn(Cc4ccc(-c5nnc(C(F)F)o5)cc4Cl)nn3)ccc2cn1 [compound 404, 6-(1-(2-chloro-4-(5-(difluoromethyl)-1,3,4-oxadiazol-2-yl)benzyl)-1H-1,2,3-triazol-4-yl)isoquinolin-3-amine]"
144,1e+06,"CNc1ccc2cc(-c3nnn(Cc4ccc(-c5nnc(C(F)F)o5)cc4F)n3)ccc2n1 [compound 401, 6-[2-[[4-[5-(difluoromethyl)-1,3,4-oxadiazol-2-yl]-2-fluorophenyl]methyl]tetrazol-5-yl]-N-methylquinolin-2-amine]"
136,1e+06,"CNc1ccc2cc(-c3nnn(Cc4ccc(-c5nnc(C(F)F)o5)c(F)c4F)n3)ccc2n1 [compound 407, 6-(2-(4-(5-(difluoromethyl)-1,3,4-oxadiazol-2-yl)-2,3-difluorobenzyl)-2H-tetrazol-5-yl)-N-methylquinolin-2-amine]"
125,1e+06,"CNc1ccc2cc(-c3nnn(Cc4c(F)cc(-c5nnc(C(F)F)o5)cc4F)n3)ccc2n1 [compound 388, 6-(2-(4-(5-(difluoromethyl)-1,3,4-oxadiazol-2-yl)-2,6-difluorobenzyl)-2H-tetrazol-5-yl)-N-methylquinolin-2-amine]"
117,1e+06,"CNc1ccc2cc(-c3nnn(Cc4ccc(-c5nnc(C(F)F)o5)c(F)c4)n3)ccc2n1 [compound 403, 6-[2-[[4-[5-(difluoromethyl)-1,3,4-oxadiazol-2-yl]-3-fluorophenyl]methyl]tetrazol-5-yl]-N-methylquinolin-2-amine]"
116,1e+06,"CNc1ncc2cc(-c3cn(Cc4ccc(-c5nnc(C(F)F)o5)cc4F)nn3)ccc2n1 [compound 390, 6-[1-({4-[5-(difluoromethyl)-1,3,4-oxadiazol-2-yl]-2-fluorophenyl}methyl)-1H-1,2,3-triazol-4-yl]-N-methylquinazolin-2-amine]"
59,1e+06,"Nc1cc2cc(-c3cn(Cc4ccc(-c5nnc(C(F)F)o5)cc4F)nn3)ccc2cn1 [compound 405, 6-[1-({4-[5-(difluoromethyl)-1,3,4-oxadiazol-2-yl]-2-fluorophenyl}methyl)-1H-1,2,3-triazol-4-yl]isoquinolin-3-amine]"
